Data set [1] addresses Multidrug resistance protein 1a (Rattus norvegicus) (UniProt Q6PSM0). Nature of the data set: TP_TRANSPORTER: Immunohistochemisty in vivo, adrenals of Fischer 344 rat. The format is functional, organism-based. Conditions: Adrenal tissue.
For data set [2] the target is unchanged. Nature of the data set: TP_TRANSPORTER: Immunohistochemisty in vivo, stomach of Fischer 344 rat. The class given is functional, organism-based.
The target is the same in data set [3]. Nature of the data set: TP_TRANSPORTER: Immunohistochemisty in vivo, liver of Fischer 344 rat. The format is functional, organism-based.
The target in data set [4] is ATP-dependent translocase ABCB1 (Homo sapiens, UniProt P08183). Nature of the data set: TP_TRANSPORTER: ATP hydrolysis in MDR1-expressing Sf9 cells. The format is functional.
Data set [5] concerns the target Multidrug resistance protein 1a (Rattus norvegicus) (UniProt Q6PSM0). Nature of the data set: TP_TRANSPORTER: Immunohistochemisty in vivo, jejunum of Fischer 344 rat. The class given is functional, organism-based.
Data set [6] has the same target. Nature of the data set: TP_TRANSPORTER: Immunohistochemisty in vivo, kidney of Fischer 344 rat. The format is functional, organism-based.

Each structure is given as a SMILES string. Entries after “also recorded” stand apart in the source; their conditions may differ.

Sequence of Multidrug resistance protein 1a (Rattus norvegicus) (Q6PSM0 as listed by the source): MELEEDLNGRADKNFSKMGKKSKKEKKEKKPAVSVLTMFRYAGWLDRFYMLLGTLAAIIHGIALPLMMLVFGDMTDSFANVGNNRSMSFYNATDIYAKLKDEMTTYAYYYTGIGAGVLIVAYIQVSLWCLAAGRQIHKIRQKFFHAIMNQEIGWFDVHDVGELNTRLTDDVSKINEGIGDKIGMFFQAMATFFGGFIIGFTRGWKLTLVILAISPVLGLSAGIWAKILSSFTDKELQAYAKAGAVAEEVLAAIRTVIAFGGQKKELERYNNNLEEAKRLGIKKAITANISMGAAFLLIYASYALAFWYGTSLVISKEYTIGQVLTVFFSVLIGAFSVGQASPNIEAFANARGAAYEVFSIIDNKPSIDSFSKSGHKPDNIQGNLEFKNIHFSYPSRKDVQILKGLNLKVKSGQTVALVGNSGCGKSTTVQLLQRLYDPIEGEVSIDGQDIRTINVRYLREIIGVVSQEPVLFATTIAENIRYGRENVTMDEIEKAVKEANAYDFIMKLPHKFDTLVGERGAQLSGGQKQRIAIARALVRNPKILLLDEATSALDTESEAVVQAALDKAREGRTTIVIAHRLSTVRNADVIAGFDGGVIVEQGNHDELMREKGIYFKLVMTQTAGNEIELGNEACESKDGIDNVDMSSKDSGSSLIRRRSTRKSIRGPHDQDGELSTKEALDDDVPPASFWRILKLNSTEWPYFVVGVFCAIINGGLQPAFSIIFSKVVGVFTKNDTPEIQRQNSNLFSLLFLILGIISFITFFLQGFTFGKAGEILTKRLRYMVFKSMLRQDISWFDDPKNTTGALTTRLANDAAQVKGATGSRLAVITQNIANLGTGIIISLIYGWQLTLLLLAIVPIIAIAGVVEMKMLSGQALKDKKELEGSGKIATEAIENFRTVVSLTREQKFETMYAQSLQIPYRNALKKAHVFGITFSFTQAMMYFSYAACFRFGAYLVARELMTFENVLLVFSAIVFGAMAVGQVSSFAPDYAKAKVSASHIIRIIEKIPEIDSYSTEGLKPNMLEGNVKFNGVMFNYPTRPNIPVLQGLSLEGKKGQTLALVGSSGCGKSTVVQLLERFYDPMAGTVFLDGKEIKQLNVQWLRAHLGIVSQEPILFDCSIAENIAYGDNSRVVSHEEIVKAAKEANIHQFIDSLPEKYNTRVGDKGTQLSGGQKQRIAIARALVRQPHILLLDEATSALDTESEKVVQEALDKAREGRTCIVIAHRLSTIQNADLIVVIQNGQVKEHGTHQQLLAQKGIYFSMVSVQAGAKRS
Sequence of ATP-dependent translocase ABCB1 (P08183 whole entry): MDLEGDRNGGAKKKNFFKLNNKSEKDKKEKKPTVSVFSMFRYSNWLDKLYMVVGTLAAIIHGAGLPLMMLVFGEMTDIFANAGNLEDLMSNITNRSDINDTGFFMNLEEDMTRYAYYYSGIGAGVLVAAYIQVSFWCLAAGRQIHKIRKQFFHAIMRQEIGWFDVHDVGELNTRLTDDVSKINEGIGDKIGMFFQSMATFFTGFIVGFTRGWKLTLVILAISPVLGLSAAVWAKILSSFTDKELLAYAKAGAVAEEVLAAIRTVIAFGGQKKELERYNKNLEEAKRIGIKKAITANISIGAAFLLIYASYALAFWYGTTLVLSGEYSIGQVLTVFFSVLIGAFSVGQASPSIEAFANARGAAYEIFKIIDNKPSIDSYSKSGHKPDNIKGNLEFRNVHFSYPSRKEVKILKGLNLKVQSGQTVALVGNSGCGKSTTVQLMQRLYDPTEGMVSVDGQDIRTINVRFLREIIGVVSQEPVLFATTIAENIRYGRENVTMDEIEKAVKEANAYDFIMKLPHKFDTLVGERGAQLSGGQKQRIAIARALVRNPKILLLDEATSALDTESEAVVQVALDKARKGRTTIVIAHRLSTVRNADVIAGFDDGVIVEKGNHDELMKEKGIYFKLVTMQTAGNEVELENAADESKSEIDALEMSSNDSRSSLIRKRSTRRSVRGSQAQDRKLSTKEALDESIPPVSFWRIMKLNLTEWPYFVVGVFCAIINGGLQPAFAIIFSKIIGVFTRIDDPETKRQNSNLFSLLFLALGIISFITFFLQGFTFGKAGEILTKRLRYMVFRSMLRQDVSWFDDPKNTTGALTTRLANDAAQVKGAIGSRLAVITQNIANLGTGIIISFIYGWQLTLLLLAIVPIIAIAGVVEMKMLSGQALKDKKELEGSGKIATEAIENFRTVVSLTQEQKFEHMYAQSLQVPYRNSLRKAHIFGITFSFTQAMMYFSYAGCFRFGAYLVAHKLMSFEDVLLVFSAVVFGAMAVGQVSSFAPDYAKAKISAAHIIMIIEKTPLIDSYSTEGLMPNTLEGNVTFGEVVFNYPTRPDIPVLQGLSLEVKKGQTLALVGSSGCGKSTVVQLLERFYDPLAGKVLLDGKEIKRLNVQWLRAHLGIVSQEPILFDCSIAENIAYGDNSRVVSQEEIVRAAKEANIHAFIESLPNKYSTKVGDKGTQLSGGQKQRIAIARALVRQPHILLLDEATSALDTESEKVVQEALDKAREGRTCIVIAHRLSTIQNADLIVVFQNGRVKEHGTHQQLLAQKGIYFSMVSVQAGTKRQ

For `CCOP(=S)(OCC)Oc1nc(Cl)c(Cl)cc1Cl` [CHLORPYRIFOS], the Activity result was “inducer [+]” in data set [1]; “inducer [+]” in data set [2]; “inducer [+]” in data set [3]; “substrate [+]; also recorded: is not a substrate [-]” in data set [4]; “inducer [+]” in data set [5]; “inducer [+]” in data set [6].

These data come from ChEMBL document CHEMBL2073801, “Chlorpyrifos oxon interacts with the mammalian multidrug resistance protein, P-glycoprotein” (J Toxicol Environ Health, 1996).
